Values quoted from earlier work in US11752152B1, “Pharmaceutical formulations of imatinib and uses thereof” (Exvastat Ltd, priority 2022, dated 2023).

System: animal models of sepsis, acute lung injury and impaired microcirculatory perfusion
Settings: variety of animal models

Structure (SMILES): Cc1ccc(NC(=O)c2ccc(CN3CCN(C)CC3)cc2)cc1Nc1nccc(-c2cccnc2)n1 [Imatinib, 4-[(4-methylpiperazin-1-yl)methyl]-N-[4-methyl-3-[(4-pyridin-3-ylpyrimidin-2-yl)amino]phenyl]benzamide]
- effect on endothelial barrier, vascular leak and inflammation: protect the endothelial barrier, prevent vascular leak and reduce inflammation
